Results published in patent US7320679B2, “Therapeutic use of growth factor, and delivery device, especially for the treatment of intimal hyperplasia” (Ark Therapeutics, Ltd., priority 1996, dated 2008).
Entries after “also recorded” stand apart in the source; their conditions may differ.

Assays:
[1] = system: carotid arteries (intimal thickening); assay: Collar-induced intimal thickening in rabbit carotid arteries after adventitial plasmid/liposome gene transfer; type: in vivo, New Zealand White rabbits; settings: L-NAME 70 mg/kg/d in drinking water; 7 days after gene transfer
Source text: The model preserved EC integrity and permitted direct extravascular gene transfer without any intravascular manipulation.
Gene Transfer: Intimal thickening was induced in the carotid arteries of thirty-two New Zealand White rabbits by inserting an inert silicone collar around the arteries under a general anaesthesia (Booth et al, Atherosclerosis (1989) 76:257-268). […] No intravascular manipulations were involved in any steps of the studies. […] Plasmids used for the studies were isolated from E. coli cultures (DH5α) using Qiagen Mega columns and purified using three phenol/chloroform extractions and one ethanol precipitation (Ausubel et al, eds. Current Protocols in Molecular Biology. New York, N.Y.: Greene Publishing Associates and John Wiley & Sons (1991) 4.2.3-4.2.4) were adjusted to 1 μg/μl and analysed to be free of any microbiological or endotoxin contamination (Limulus assay, detection limit 0.2 ng). […] Differences in the intima/media thickness ratios between the groups were analysed by ANOVA, followed by modified t-test (*p<0.05). […]
Gene transfer was carried out as described in Example 1.1. […] Animals were sacrificed 7 days after gene transfer and analysed for the intima/media thickness ratio and histology as described above (Ylä-Herttuala et al, Arteriosclerosis (1986) 6: 230-236; Ylä-Herttuala et al (1990) supra). […]

[2] = system: 205 kD protein corresponding to VEGF receptor; assay: Anti-phosphotyrosine immunoprecipitation/immunoblot in HUVEC; type: cell-based, human; settings: 100 μM L-NAME 1 h pretreatment; 10 ng/ml VEGF 10 min
Description: In some experiments, cells were pretreated for 1 h with 100 μM L-NAME and subsequently treated either with or without. […] The medium was removed and cells were rapidly lysed at 4° C. by addition of 10 mM Tris/HCl (pH 7.6), 5 mM EDTA, 50 mM NaCl, 30 mM sodium pyrophosphate, 50 mM NaF, 0.1 mM Na3VO4, 1 mM PMSF and 1% Triton X-100 (lysis buffer). Lysates were clarified by centrifugation at 15000×g for 10 min, and immunoprecipitations were performed by incubating clarified lysates with PY20 anti-phosphotyrosine mAb for 2 h at […] Immunoprecipitates were collected by incubating lysates for a further 1 hour with protein A-agarose. Immunoprecipitates were washed three times with lysis buffer and proteins were then extracted with 2×SDS-PAGE sample buffer. After SDS-PAGE, immunoprecipitated proteins were transferred to membranes and then immunoblotted with PY20 mAb.

NO production in HUVEC = assay: Nitrite (NO) production in HUVEC, capillary detection method; type: cell-based, human
Description: Nitrite production was measured using capillary detection method (Leone et al, in Methods in Nitric Oxide Research, Feelisch and Stanler, eds. John Wiley & Sons, New York (1996) 499-508).

## COC(=O)[C@@H](N)CCCNC(=N)N[N+](=O)[O-] [L-NAME]
[1]
  effect of L-NAME on the difference in intimal thickening between VEGF- and lacZ-transfected arteries: abolished
[2]
  effect of L-NAME on VEGF-induced phosphorylation: abolishes the response to VEGF; also recorded: completely abolished
NO production in HUVEC; 100 μM L-NAME
  effect of L-NAME on VEGF-induced NO production: completely abolished
NO production in HUVEC; L-NAME 100 μM pretreatment 1 hour, then 25 ng/ml VEGF 10 minutes
  nitrite production level after L-NAME: ~17 µM
